What was measured:
[1] = maximum electric shock test (MES), protection against tonic extensor cramp; format: in vivo, mice
[2] = prolongation of sodium hexobarbitone narcosis; format: in vivo, mice; conditions: for ED (200%): Mus musculus, po, 1 h, mice, sodium hexobarbitone 70 mg/kg i.v., 60 minutes after p.o. administration, extension of the narcosis period to 200%, read-out: Prolongation of narcosis ED200; for effectiveness in prolonging sleep compared with known hypnotics and tranquillizers: versus e.g. chlorzoxazone and meprobamate
[3] = paralysis: loss of the postural and balancing reflexes (lying down); format: in vivo, mice; conditions: for ED50: Mus musculus, po, read-out: Paralysis ED50; for effectiveness in relaxing the muscle system compared with known hypnotics and tranquillizers: versus e.g. chlorzoxazone and meprobamate
in vivo = conditions: mouse, po
[4] = minimum pentetrazole shock test (min PS), protection against clonic cramp; format: in vivo, mice; conditions: Mus musculus, po, 1 h, read-out: Anticonvulsive activity Min PS ED50;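 also: albino NMRI mice, oral dosing, clonic seizures provoked 60 min later by subcutaneous pentetrazole 70 mg/kg, ED50 is the dose protecting half of animals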
[5] = administration of a tablet to a human suffering from motor restlessness, with electroencephalogram; format: in vivo; conditions: 50 mg
Experimental: A tablet produced in accordance with Example 75 consisting of 50 mg. of the active compound according to Example 43 and the equivalent amount of the other ingredients was administered to a human suffering from motor restlessness.

[6] = Mus musculus, po, 1 h; read-out: Anticonvulsive activity MES ED50
[7] = Mus musculus, po, 1 h, read-out: Anticonvulsive activity MES ED50
[8] = mice, p.o., lying down in 50% of the animals
[9] = MES and min PS test models; versus trimethadione and dipropyl acetate
[10] = mice, 70 mg/kg pentetrazole s.c., 60 minutes after p.o. administration, protection in 50% of the animals

SMILES	ED50 [1, 6] [mg/kg]	ED (200%) [2] [mg/kg]	ED50 [3] [mg/kg]	ED50 [1, 7] [mg/kg]	LD50 at 168 h (in vivo) [mg/kg]	ED50 [4] [mg/kg]	ED50 [3, 8] [mg/kg]	anticonvulsive effect compared with conventional antiepileptics [1, 9]	ED50 [4, 10] [mg/kg]	effectiveness in relaxing the muscle system compared with known hypnotics and tranquillizers [3]	effectiveness in prolonging sleep compared with known hypnotics and tranquillizers [2]	electroencephalogram findings [5]	indications of a shallow sleep phase in the electroencephalogram ([5]; 5 hours after administration)	effect reported by the patient ([5]; within a period of several minutes)
O=C1NC(=O)C(c2ccccc2)(c2ccccc2)N1 [Diphenylhydantoin, reference compound]	10	50												
CCCC(CCC)C(=O)O [Dipropylacetate, reference compound]			1000	185	> 1000	450								
O=C1NC(C(O)c2ccc(Cl)cc2)CO1 (stereo not drawn) [Example 4, 4-(α-Hydroxy-p-chlorobenzyl)-oxazolidin-2-one]	125	160			> 1000		> 1000	superior	140					
CC(O)C1NC(=O)OC1c1ccccc1 (stereo not shown) [Example 5, 4-[1-(1-Hydroxyethyl)]-5-phenyl oxazolidin-2-one]	75	510			> 1000		> 1000	superior	150					
CC1(CO)NC(=O)OC1(C)c1ccccc1 (stereo not shown) [Example 6]	165	1000			> 100		1000		> 464					
CCC(O)(c1ccccc1)C1NC(=O)OC1C (stereo not shown) [Example 18, 4-[-1-(1-Hydroxy-1-phenyl)-propyl]-5-methyl oxazolidin-2-one]	200	450			> 1000		> 1000		200					
C=CCC(O)(CC=C)C1NC(=O)OC1C (stereo not shown) [Example 34]	150	90			> 1000		1000		> 464					
CC(C)(O)C1NC(=O)OC1c1ccccc1 (stereo not shown) [Example 37]	59	650			> 1000		1000	superior	130					
CN1C(=O)OC(c2ccccc2)C1C(C)(C)O (stereo not shown) [Example 38]	165	115			> 1000		464		640	distinctly more effective	distinctly more effective			
C=CCN1C(=O)OC(c2ccccc2)C1C(C)(C)O (stereo not shown) [Example 39]	145	130			1000		> 1000		> 464					
CCC(O)(CC)C1NC(=O)OC1c1ccccc1 (stereo not shown) [Example 40]	75	165			> 1000		1000		430					
CCCC(O)(CCC)C1NC(=O)OC1c1ccccc1 (stereo not shown) [Example 41]	147	65			> 1000		> 1000		> 464					
C=CCC(O)(CC=C)C1NC(=O)OC1c1ccccc1 (stereo not shown) [Example 43]	25	15			1000		225		> 464	distinctly more effective	distinctly more effective	characteristic signs of a sedation with a decrease of effectiveness in the alpha and beta band and a change of the range of main activity to the lower frequency range	clearly increased	muscle relaxing, tiring and ataraktic sedation
CCCC(O)(CCC)C1COC(=O)N1 (stereo not shown) [Example 45]	120	210			> 1000		1000		430					
O=C1NC(C(O)(c2ccccc2)c2cccc(Cl)c2)CO1 (stereo not shown) [Example 49]	200	90			> 1000		> 1000		> 464					
CCC(O)(c1ccccc1)C1COC(=O)N1 (stereo not shown) [Example 54]	115	50			> 1000		800	superior	85	distinctly more effective	distinctly more effective			
C=CCC(O)(c1ccccc1)C1COC(=O)N1 (stereo not shown) [Example 58]	200	300			> 1000		1000		300					
CC(O)(c1ccc(Cl)cc1)C1COC(=O)N1 (stereo not shown) [Example 59]	165	110			> 1000		> 1000		> 464					
CCC(O)(c1ccc(Cl)cc1)C1COC(=O)N1 (stereo not shown) [Example 60]	175	70			> 1000		1000		> 464					
CCC(O)(c1ccccc1)C1COC(=O)N1C (stereo not shown) [Example 64]	300	110			800		650		> 464	distinctly more effective	distinctly more effective			
CCCC(O)(c1ccccc1)C1COC(=O)N1 (stereo not shown) [Example 65]	170	155			> 1000		> 1000		175					
CC1(c2ccccc2)OC(=O)NC1CCl (stereo not shown) [Example 67, 4-Chloromethyl-5-methyl-5-phenyl oxazolidin-2-one]			1000	93	> 1000	55		superior						
O=C1NC(CCl)C(c2ccccc2)O1 (stereo not shown) [Example 72]			> 1000	75	> 1000	540								
O=C1NC(CBr)C(c2ccccc2)O1 (stereo not shown) [Example 73]			> 1000	65	> 1000	430								
CCCC(C)(COC(N)=O)COC(N)=O [Meprobamate, reference compound]			800	115	1000	150								
CCC1(c2ccccc2)C(=O)NC(=O)NC1=O [Na-phenocarbital, reference compound]			150	11	320	30								
CN1C(=O)OC(C)(C)C1=O [Trimethadione, reference compound]	450	660			> 1000		> 1000		240					
